Measurements as given in article PMC6006285, “Specific stereochemistry of OP-1074 disrupts estrogen receptor alpha helix 12 and confers pure antiestrogenic activity” (Nature Communications, 2018).
pIC50: −log10 of the molar value.

Molecular target: T1, Estrogen Receptor α LBD (ERα) (Homo sapiens, UniProt P03372)
T1 construct: 2 nM biotinylated Estrogen Receptor α LBD (ERα) was incubated; biotin (biotinylated)
T1 sequence (P03372 311-547 limits assumed): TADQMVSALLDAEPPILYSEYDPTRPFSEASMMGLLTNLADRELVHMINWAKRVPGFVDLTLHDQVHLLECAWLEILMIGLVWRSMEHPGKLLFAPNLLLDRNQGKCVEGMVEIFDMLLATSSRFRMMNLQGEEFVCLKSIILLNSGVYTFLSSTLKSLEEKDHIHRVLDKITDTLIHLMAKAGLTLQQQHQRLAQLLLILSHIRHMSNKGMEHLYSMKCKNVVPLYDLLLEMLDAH
Assay: Competitive ligand binding assay with [3H]-E2
Details: 10 nM [3H]-E2 tracer, 2 nM biotinylated ERα LBD; representative experiment
Description: Experimental data points are mean + /− s.e.m. of triplicate samples in a representative experiment. […] Experimental data points are mean + /− s.d. of triplicate samples in a representative experiment
Triplicate reactions were vortexed and 100 μL was added in triplicate to a 96-well streptavidin flashplate (Perkin Elmer #SMP103001PK), which incubated overnight at 4 °C prior to reading.

Compound CC1=C(c2ccc(O)cc2)[C@H](c2ccc(OCCN3CC[C@@H](C)C3)cc2)Oc2cc(O)ccc21 [OP-1074] has a pIC50 of 8.15.
